According to the NIST ThermoML archive (doi:10.1021/je700260f):
Numbers after ± are expanded uncertainties.

Settings: 323.14 K, Liquid, Vibrating tube method

FC(C(F)(F)F)C(F)(F)F [1,1,1,2,3,3,3-heptafluoropropane]
Settings	mass density [kg/m3]
10190 kPa	1363.3 ± 1.5
10206 kPa	1363.7 ± 1.5
10232 kPa	1363.8 ± 1.5
10249 kPa	1363.9 ± 1.5
10273 kPa	1364 ± 1.5
10288 kPa	1364 ± 1.5
10306 kPa	1364.3 ± 1.5
10331 kPa	1364.4 ± 1.5
10619 kPa	1366.6 ± 1.5
10640 kPa	1366.6 ± 1.5
10664 kPa	1366.8 ± 1.5
10682 kPa	1367 ± 1.5
10704 kPa	1367.2 ± 1.5
10722 kPa	1367.2 ± 1.5
10915 kPa	1368.6 ± 1.5
10935 kPa	1368.7 ± 1.5
10959 kPa	1368.8 ± 1.5
10980 kPa	1369 ± 1.5
10998 kPa	1369.1 ± 1.5
11021 kPa	1369.4 ± 1.5
11042 kPa	1369.4 ± 1.5
11057 kPa	1369.5 ± 1.5
11076 kPa	1369.7 ± 1.5
11096 kPa	1369.7 ± 1.5
11117 kPa	1370 ± 1.5
11135 kPa	1370.2 ± 1.5
11157 kPa	1370.3 ± 1.5
11177 kPa	1370.4 ± 1.5
11197 kPa	1370.5 ± 1.5
11213 kPa	1370.6 ± 1.5
11232 kPa	1370.9 ± 1.5
11253 kPa	1370.9 ± 1.5
11267 kPa	1370.9 ± 1.5
11292 kPa	1371.1 ± 1.5
11315 kPa	1371.3 ± 1.5
11336 kPa	1371.4 ± 1.5
11363 kPa	1371.8 ± 1.5
11565 kPa	1373.2 ± 1.5
11585 kPa	1373.1 ± 1.5
11609 kPa	1373.4 ± 1.5
11632 kPa	1373.4 ± 1.5
11649 kPa	1373.5 ± 1.5
11666 kPa	1373.6 ± 1.5
11689 kPa	1373.9 ± 1.5
11707 kPa	1374 ± 1.5
11729 kPa	1374.2 ± 1.5
11754 kPa	1374.2 ± 1.5
11777 kPa	1374.4 ± 1.5
11792 kPa	1374.5 ± 1.5
11810 kPa	1374.6 ± 1.5
11827 kPa	1374.8 ± 1.5
11848 kPa	1374.9 ± 1.5
11870 kPa	1375 ± 1.5
11893 kPa	1375.2 ± 1.5
11908 kPa	1375.3 ± 1.5
11927 kPa	1375.4 ± 1.5
11947 kPa	1375.6 ± 1.5
11965 kPa	1375.6 ± 1.5
11993 kPa	1375.7 ± 1.5
12013 kPa	1376 ± 1.5
12029 kPa	1376.1 ± 1.5
12054 kPa	1376.2 ± 1.5
12076 kPa	1376.4 ± 1.5
12099 kPa	1376.6 ± 1.5
12118 kPa	1376.8 ± 1.5
12139 kPa	1376.8 ± 1.5
12160 kPa	1377 ± 1.5
12176 kPa	1376.9 ± 1.5
12200 kPa	1377.2 ± 1.5
12222 kPa	1377.4 ± 1.5
12238 kPa	1377.4 ± 1.5
12262 kPa	1377.6 ± 1.5
12274 kPa	1377.8 ± 1.5
12293 kPa	1377.8 ± 1.5
12313 kPa	1377.9 ± 1.5
12329 kPa	1378.1 ± 1.5
12350 kPa	1378.1 ± 1.5
12373 kPa	1378.3 ± 1.5
12391 kPa	1378.5 ± 1.5
12410 kPa	1378.6 ± 1.5
12427 kPa	1378.8 ± 1.5
12447 kPa	1378.8 ± 1.5
12464 kPa	1378.9 ± 1.5
12483 kPa	1379.1 ± 1.5
12497 kPa	1379.2 ± 1.5
12514 kPa	1379.4 ± 1.5
12536 kPa	1379.3 ± 1.5
12551 kPa	1379.4 ± 1.5
12573 kPa	1379.6 ± 1.5
12589 kPa	1379.7 ± 1.5
12612 kPa	1379.9 ± 1.5
12627 kPa	1380 ± 1.5
12652 kPa	1380.2 ± 1.5
12677 kPa	1380.3 ± 1.5
12736 kPa	1380.7 ± 1.5
12755 kPa	1380.8 ± 1.5
13031 kPa	1382.6 ± 1.5
13052 kPa	1382.8 ± 1.5
13077 kPa	1382.9 ± 1.5
13095 kPa	1383 ± 1.5
13117 kPa	1382.9 ± 1.5
13141 kPa	1383.4 ± 1.5
13161 kPa	1383.4 ± 1.5
13263 kPa	1384.2 ± 1.5
13295 kPa	1384.2 ± 1.5
13310 kPa	1384.3 ± 1.5
13334 kPa	1384.5 ± 1.5
13348 kPa	1384.5 ± 1.5
13370 kPa	1384.7 ± 1.5
13389 kPa	1384.9 ± 1.5
13415 kPa	1385 ± 1.5
13433 kPa	1385 ± 1.5
13456 kPa	1385.2 ± 1.5
13476 kPa	1385.4 ± 1.5
13497 kPa	1385.5 ± 1.5
13522 kPa	1385.7 ± 1.5
13541 kPa	1385.7 ± 1.5
13570 kPa	1385.9 ± 1.5
13595 kPa	1386 ± 1.5
13614 kPa	1386.2 ± 1.5
13637 kPa	1386.4 ± 1.5
13663 kPa	1386.4 ± 1.5
13682 kPa	1386.6 ± 1.5
13710 kPa	1386.8 ± 1.5
13870 kPa	1387.7 ± 1.5
14734 kPa	1393 ± 1.6
14760 kPa	1393 ± 1.6
14781 kPa	1393.3 ± 1.6
14798 kPa	1393.4 ± 1.6
14818 kPa	1393.6 ± 1.6
14842 kPa	1393.7 ± 1.6
14866 kPa	1393.6 ± 1.6
14883 kPa	1393.8 ± 1.6
14902 kPa	1394 ± 1.6
14919 kPa	1394.1 ± 1.6
14940 kPa	1394.1 ± 1.6
14959 kPa	1394.3 ± 1.6
14983 kPa	1394.4 ± 1.6
15001 kPa	1394.4 ± 1.6
15028 kPa	1394.7 ± 1.6
15049 kPa	1394.9 ± 1.6
15077 kPa	1395 ± 1.6
15098 kPa	1395 ± 1.6
15122 kPa	1395.1 ± 1.6
15150 kPa	1395.5 ± 1.6
15173 kPa	1395.6 ± 1.6
15198 kPa	1395.7 ± 1.6
15219 kPa	1395.7 ± 1.6
15265 kPa	1396.1 ± 1.6
15284 kPa	1396.2 ± 1.6
15307 kPa	1396.3 ± 1.6
15326 kPa	1396.4 ± 1.6
15346 kPa	1396.5 ± 1.6
15368 kPa	1396.6 ± 1.6
15389 kPa	1396.7 ± 1.6
15413 kPa	1396.8 ± 1.6
15436 kPa	1397 ± 1.6
15456 kPa	1397.1 ± 1.6
15488 kPa	1397.3 ± 1.6
15504 kPa	1397.5 ± 1.6
15524 kPa	1397.5 ± 1.6
15550 kPa	1397.7 ± 1.6
15575 kPa	1397.8 ± 1.6
15602 kPa	1398 ± 1.6
15630 kPa	1398.1 ± 1.6
15655 kPa	1398.2 ± 1.6
15678 kPa	1398.5 ± 1.6
16094 kPa	1400.8 ± 1.6
16115 kPa	1400.9 ± 1.6
16141 kPa	1401 ± 1.6
16161 kPa	1401.1 ± 1.6
16188 kPa	1401.4 ± 1.6
17246 kPa	1407 ± 1.6
17274 kPa	1407.3 ± 1.6
17301 kPa	1407.6 ± 1.6
17357 kPa	1407.6 ± 1.6
17403 kPa	1407.9 ± 1.6
17424 kPa	1408 ± 1.6
17446 kPa	1408.2 ± 1.6
17472 kPa	1408.3 ± 1.6
17493 kPa	1408.4 ± 1.6
17519 kPa	1408.6 ± 1.6
17539 kPa	1408.5 ± 1.6
17574 kPa	1408.8 ± 1.6
17597 kPa	1408.9 ± 1.6
17623 kPa	1409 ± 1.6
17646 kPa	1409.2 ± 1.6
17666 kPa	1409.3 ± 1.6
17693 kPa	1409.4 ± 1.6
17717 kPa	1409.6 ± 1.6
17741 kPa	1409.7 ± 1.6
17761 kPa	1409.8 ± 1.6
17791 kPa	1410 ± 1.6
17819 kPa	1410.1 ± 1.6
17843 kPa	1410.3 ± 1.6
17864 kPa	1410.4 ± 1.6
17920 kPa	1410.7 ± 1.6
18206 kPa	1412.2 ± 1.6
18259 kPa	1412.5 ± 1.6
18289 kPa	1412.6 ± 1.6
18339 kPa	1412.9 ± 1.6
18360 kPa	1412.9 ± 1.6
18390 kPa	1413.2 ± 1.6
18414 kPa	1413.2 ± 1.6
18445 kPa	1413.4 ± 1.6
